Consider 5 compounds from article PMC3915720 (Biochemistry, 2013).

What all share (assay): X-ray crystal structure, […] Å
Holding throughout (type): binding

For assay [1], the target named is T1, WlaRD (C8J_1081) (Campylobacter jejuni, UniProt Q9ALS6).
In assay [2] the target is T1, WlaRD (C8J_1081). This is another data set of the same source.
Assay [3] concerns the target T1, WlaRD (C8J_1081). The conditions noted are these: complex with N^5-formyl-THF.

For the compound `Cc1cn([C@H]2C[C@H](O)[C@@H](COP(=O)(O)OP(=O)(O)O)O2)c(=O)[nH]c1=O` [dTDP], the “X-ray crystal structure, 1.4 Å (cocrystal)” value at WlaRD (C8J_1081) [1] (complex with N^5-formyl-THF, also with N^10-formyl-THF) is “that of the enzyme complexed with N^5-formyl-THF and dTDP”.
As to `Cc1cn([C@H]2C[C@H](O)[C@@H](COP(=O)(O)OP(=O)(O)O[C@H]3O[C@H](C)[C@@H](O)[C@H](NC=O)[C@H]3O)O2)c(=O)[nH]c1=O` [dTDP-Qui3NFo], at WlaRD (C8J_1081) [2] (complex with THF, subunit B), the “X-ray crystal structure, 1.9 Å (soak, turnover in crystal)” value is “In subunit B, however, the products THF and dTDP-Qui3NFo were present”.
Turning to `Nc1nc2c(c(=O)[nH]1)N(C=O)[C@@H](CNc1ccc(C(=O)N[C@@H](CCC(=O)O)C(=O)O)cc1)CN2` [N^5-formyl-THF], the “X-ray crystal structure, 1.4 Å (cocrystal)” value on WlaRD (C8J_1081) [1] (complex with dTDP, not catalytically competent cofactor analog) is “that of the enzyme complexed with N^5-formyl-THF and dTDP”.
As to `Cc1cn([C@H]2C[C@H](O)[C@@H](COP(=O)(O)OP(=O)(O)O[C@H]3O[C@H](C)[C@H](O)[C@H](NC=O)[C@H]3O)O2)c(=O)[nH]c1=O` [dTDP-Fuc3NFo], the “X-ray crystal structure, 1.45 Å (cocrystal)” value at WlaRD (C8J_1081) [3] is reported as “to form such a complex in the presence of dTDP-Fuc3NFo as shown”.
Turning to `Nc1nc2c(c(=O)[nH]1)N[C@@H](CNc1ccc(C(=O)N[C@@H](CCC(=O)O)C(=O)O)cc1)CN2` [THF], on WlaRD (C8J_1081) [2] (complex with dTDP-Qui3N (subunit A) or dTDP-Qui3NFo (subunit B)), the “X-ray crystal structure, 1.9 Å (soak, turnover in crystal)” value is “In subunit A, THF and dTDP-Qui3N were observed”.
